Assay results: patent US9150566B2, “2-(1,2,3-triazol-2-yl)benzamide and 3-(1,2,3-triazol-2-YL)picolinamide derivatives as orexin receptor antagonists” (ACTELION PHARMACEUTICALS LTD., priority 2011, dated 2015)
Read-outs that look alike come from different tables or passages of the source.

Legend:
human orexin-1 receptor = human orexin-1 receptor (Homo sapiens (Human), UniProt O43613); assay: In vitro intracellular calcium measurements (FLIPR), antagonistic activity on orexin-1 receptor; assay type: cell-based; conditions: read-out: IC50 OX1
Procedure: (§1) In Vitro Assay: Intracellular Calcium Measurements:
(§2) Chinese hamster ovary (CHO) cells expressing the human orexin-1 receptor and the human orexin-2 receptor, respectively, are grown in culture medium (Ham F-12 with L-Glutamine) containing 300 μg/mL G418, 100 U/mL penicillin, 100 μg/mL streptomycin and 10% heat inactivated fetal calf serum (FCS). The cells are seeded at 20′000 cells/well into 384-well black clear bottom sterile plates (Greiner). The seeded plates are incubated overnight at 37° C. in 5% CO2.
(§3) Within the Fluorescent Imaging Plate Reader (FLIPR Tetra, Molecular Devices), antagonists are added to the plate in a volume of 10 μL/well, incubated for 120 min and finally 10 μL/well of agonist is added. Fluorescence is measured for each well at 1 second intervals, and the height of each fluorescence peak is compared to the height of the fluorescence peak induced by 3 nM orexin-A with vehicle in place of antagonist. […] Optimized conditions were achieved by adjustment of pipetting speed and cell splitting regime. The calculated IC50 values may fluctuate depending on the daily cellular assay performance. Fluctuations of this kind are known to those skilled in the art.

CYP3A4 = CYP3A4 (Homo sapiens (Human), UniProt P08684); assay: CYP3A4 inhibition assay (human liver microsomes, testosterone 6β-hydroxylation); conditions: read-out: CYP3A4 IC50, 40 μM testosterone
human orexin-2 receptor = human orexin-2 receptor (Homo sapiens (Human), UniProt O43614); assay: In vitro intracellular calcium measurements (FLIPR), antagonistic activity on orexin-2 receptor; assay type: cell-based; conditions: read-out: IC50 OX2
Procedure: as §1, §2, §3

[1] = CHO cells expressing human orexin-1 receptor, FLIPR, 3 nM orexin-A agonist, 120 min antagonist incubation, geometric mean if determined several times
[2] = CHO cells expressing human orexin-2 receptor, FLIPR, 3 nM orexin-A agonist, 120 min antagonist incubation, geometric mean if determined several times

Sequence of human orexin-2 receptor (O43614 whole entry): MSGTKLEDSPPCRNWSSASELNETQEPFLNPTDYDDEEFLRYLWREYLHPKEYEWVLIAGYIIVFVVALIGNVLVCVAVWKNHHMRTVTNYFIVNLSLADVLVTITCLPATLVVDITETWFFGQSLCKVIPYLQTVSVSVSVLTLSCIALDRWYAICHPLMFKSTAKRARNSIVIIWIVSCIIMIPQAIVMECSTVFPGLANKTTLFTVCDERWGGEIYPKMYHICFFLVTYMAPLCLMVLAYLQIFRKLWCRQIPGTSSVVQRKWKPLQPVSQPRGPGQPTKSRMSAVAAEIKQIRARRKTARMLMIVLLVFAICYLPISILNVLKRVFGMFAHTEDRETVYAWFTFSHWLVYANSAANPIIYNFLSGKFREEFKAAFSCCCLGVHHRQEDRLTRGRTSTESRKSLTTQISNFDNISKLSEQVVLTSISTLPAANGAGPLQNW
Sequence of CYP3A4 (P08684 whole entry): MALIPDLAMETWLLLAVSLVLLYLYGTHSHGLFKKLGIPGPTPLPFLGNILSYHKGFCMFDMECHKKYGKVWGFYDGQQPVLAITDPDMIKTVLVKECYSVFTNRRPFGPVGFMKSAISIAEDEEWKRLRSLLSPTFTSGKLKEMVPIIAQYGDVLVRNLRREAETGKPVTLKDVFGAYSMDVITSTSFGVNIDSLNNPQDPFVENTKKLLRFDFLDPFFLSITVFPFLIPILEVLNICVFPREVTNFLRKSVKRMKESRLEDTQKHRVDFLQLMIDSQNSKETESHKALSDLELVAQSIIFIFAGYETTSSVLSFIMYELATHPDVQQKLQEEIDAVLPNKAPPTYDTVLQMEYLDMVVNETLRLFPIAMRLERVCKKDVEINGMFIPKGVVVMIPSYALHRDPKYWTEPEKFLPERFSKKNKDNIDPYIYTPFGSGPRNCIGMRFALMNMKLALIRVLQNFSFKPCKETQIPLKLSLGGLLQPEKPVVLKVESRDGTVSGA
Sequence of human orexin-1 receptor (O43613 whole entry): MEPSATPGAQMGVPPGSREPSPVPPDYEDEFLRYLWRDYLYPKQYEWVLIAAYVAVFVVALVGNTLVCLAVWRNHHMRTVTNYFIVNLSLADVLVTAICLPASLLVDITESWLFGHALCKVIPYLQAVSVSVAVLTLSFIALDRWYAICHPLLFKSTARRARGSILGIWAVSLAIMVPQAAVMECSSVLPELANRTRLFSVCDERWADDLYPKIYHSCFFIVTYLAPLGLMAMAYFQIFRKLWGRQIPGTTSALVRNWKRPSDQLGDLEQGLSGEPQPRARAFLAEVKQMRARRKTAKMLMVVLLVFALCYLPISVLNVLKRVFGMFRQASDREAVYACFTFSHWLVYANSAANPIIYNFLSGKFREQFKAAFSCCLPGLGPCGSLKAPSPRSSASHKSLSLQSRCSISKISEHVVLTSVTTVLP

Structure (SMILES) | IC50 (human orexin-1 receptor; [1]) [nM] | IC50 (CYP3A4) [nM] | IC50 (human orexin-2 receptor; [2]) [nM] | IC50 (human orexin-1 receptor) [nM] | IC50 (human orexin-2 receptor) [nM]
COc1ccc(C[C@@H]2COCCN2C(=O)c2ccccc2-n2nccn2)cc1-c1ncco1 [Example 9, [(R)-3-(4-Methoxy-3-oxazol-2-yl-benzyl)-morpholin-4-yl]-(2-[1,2,3]triazol-2-yl-phenyl)-methanone] | 2 | 8400 | 468 |  | 
COc1ccc(C[C@@H]2COCCN2C(=O)c2ccccc2-n2nccn2)cc1-n1cccn1 [Example 14, [(R)-3-(4-Methoxy-3-pyrazol-1-yl-benzyl)-morpholin-4-yl]-(2-[1,2,3]triazol-2-yl-phenyl)-methanone] | 3 | > 50000 | 905 |  | 
Cc1ccc(-n2nccn2)c(C(=O)N2CCOC[C@H]2Cc2cccc(-n3ccnn3)c2)c1 [Example 15, (5-Methyl-2-[1,2,3]triazol-2-yl-phenyl)-[(R)-3-(3-[1,2,3]triazol-1-yl-benzyl)-morpholin-4-yl]-methanone] | 24 | 14000 | 3160 |  | 
Cc1ccc(-n2nccn2)c(C(=O)N2CCOC[C@H]2Cc2cccc(-c3ncccn3)c2)c1 [Example 17, (5-Methyl-2-[1,2,3]triazol-2-yl-phenyl)-[(R)-3-(3-pyrimidin-2-yl-benzyl)-morpholin-4-yl]-methanone] | 2 | 33000 | 396 |  | 
O=C(c1ccccc1-n1nccn1)N1CCOC[C@H]1Cc1cccc(-c2ncccn2)c1 [Example 18, [(R)-3-(3-Pyrimidin-2-yl-benzyl)-morpholin-4-yl]-(2-[1,2,3]triazol-2-yl-phenyl)-methanone] | 22 | 39000 | 1890 |  | 
Cc1ccc(-n2nccn2)c(C(=O)N2CCOC[C@H]2Cc2cccc(-n3cccn3)c2)c1 [Example 19, (5-Methyl-2-[1,2,3]triazol-2-yl-phenyl)-[(R)-3-(3-pyrazol-1-yl-benzyl)-morpholin-4-yl]-methanone] | 2 | 32000 | 369 |  | 
O=C(c1cc(F)ccc1-n1nccn1)N1CCOC[C@H]1Cc1cccc(-n2cccn2)c1 [Example 20, (5-Fluoro-2-[1,2,3]triazol-2-yl-phenyl)-[(R)-3-(3-pyrazol-1-yl-benzyl)-morpholin-4-yl]-methanone] | 25 | 25000 | 1530 |  | 
Cc1ccc(C(=O)N2CCOC[C@H]2Cc2cccc(-n3cccn3)c2)c(-n2nccn2)c1 [Example 22, (4-Methyl-2-[1,2,3]triazol-2-yl-phenyl)-[(R)-3-(3-pyrazol-1-yl-benzyl)-morpholin-4-yl]-methanone] | 3 | 41000 | 318 |  | 
Cc1ccc(-n2nccn2)c(C(=O)N2CCOC[C@H]2Cc2cccc(-n3cncn3)c2)c1 [Example 23, (5-Methyl-2-[1,2,3]triazol-2-yl-phenyl)-[(R)-3-(3-[1,2,4]triazol-1-yl-benzyl)-morpholin-4-yl]-methanone] | 34 | 6000 | 4780 |  | 
Cc1ccc(-n2nccn2)c(C(=O)N2CCOC[C@H]2Cc2cccc(-c3ccccn3)c2)c1 [Example 24, (5-Methyl-2-[1,2,3]triazol-2-yl-phenyl)-[(R)-3-(3-pyridin-2-yl-benzyl)-morpholin-4-yl]-methanone] | 3 | > 50000 | 1030 |  | 
O=C(c1cc(F)ccc1-n1nccn1)N1CCOC[C@H]1Cc1cccc(-n2nccn2)c1 [Example 26, (5-Fluoro-2-[1,2,3]triazol-2-yl-phenyl)-[(R)-3-(3-[1,2,3]triazol-2-yl-benzyl)-morpholin-4-yl]-methanone] | 21 | 24000 | 822 |  | 
Cc1ccc(-n2nccn2)c(C(=O)N2CCOC[C@H]2Cc2cccc(-c3ccncc3)c2)c1 [Example 28, (5-Methyl-2-[1,2,3]triazol-2-yl-phenyl)-[(R)-3-(3-pyridin-4-yl-benzyl)-morpholin-4-yl]-methanone] | 43 | 300 | 2110 |  | 
N#Cc1ccc(-n2nccn2)c(C(=O)N2CCOC[C@H]2Cc2cccc(-n3nccn3)c2)c1 [Example 31, 4-[1,2,3]Triazol-2-yl-3-[(R)-3-(3-[1,2,3]triazol-2-yl-benzyl)-morpholine-4-carbonyl]-benzonitrile] | 33 | > 50000 | 360 |  | 
COc1ccc(-n2nccn2)c(C(=O)N2CCOC[C@H]2Cc2cccc(-n3nccn3)c2)c1 [Example 32, (5-Methoxy-2-[1,2,3]triazol-2-yl-phenyl)-[(R)-3-(3-[1,2,3]triazol-2-yl-benzyl)-morpholin-4-yl]-methanone] |  | > 50000 |  | 7 | 489
COc1ccc(-n2nccn2)c(C(=O)N2CCOC[C@H]2Cc2cccc(-n3nccn3)c2)c1F [Example 33, (2-Fluoro-3-methoxy-6-[1,2,3]triazol-2-yl-phenyl)-[(R)-3-(3-[1,2,3]triazol-2-yl-benzyl)-morpholin-4-yl]-methanone] | 14 | > 50000 | 1200 |  | 
COc1cc(C(=O)N2CCOC[C@H]2Cc2cccc(-n3nccn3)c2)c(-n2nccn2)cc1OC [Example 34, (4,5-Dimethoxy-2-[1,2,3]triazol-2-yl-phenyl)-[(R)-3-(3-[1,2,3]triazol-2-yl-benzyl)-morpholin-4-yl]-methanone] | 5 | > 50000 | 1230 |  | 
O=C(c1ccc(F)cc1-n1nccn1)N1CCOC[C@H]1Cc1cccc(-n2nccn2)c1 [Example 36, (4-Fluoro-2-[1,2,3]triazol-2-yl-phenyl)-[(R)-3-(3-[1,2,3]triazol-2-yl-benzyl)-morpholin-4-yl]-methanone] |  | 36000 |  | 41 | 889
Cc1ccc(-n2nccn2)c(C(=O)N2CCOC[C@H]2Cc2cccc(-c3nccc(C)n3)c2)c1 [Example 39, {(R)-3-[3-(4-Methyl-pyrimidin-2-yl)-benzyl]-morpholin-4-yl}-(5-methyl-2-[1,2,3]triazol-2-yl-phenyl)-methanone] | 5 | 18000 | 231 |  | 
O=C(c1ccccc1-n1nccn1)N1CCOC[C@H]1Cc1cccc(-c2ncco2)c1 [Example 42, [(R)-3-(3-Oxazol-2-yl-benzyl)-morpholin-4-yl]-(2-[1,2,3]triazol-2-yl-phenyl)-methanone] | 34 | 5100 | 2010 |  | 
Cc1ccc(-n2nccn2)c(C(=O)N2CCOC[C@H]2Cc2cccc(-c3nccs3)c2)c1 [Example 43, (5-Methyl-2-[1,2,3]triazol-2-yl-phenyl)-[(R)-3-(3-thiazol-2-yl-benzyl)-morpholin-4-yl]-methanone] | 0.3 | 1200 | 273 |  | 
O=C(c1ccccc1-n1nccn1)N1CCOC[C@H]1Cc1cccc(-c2nccs2)c1 [Example 44, [(R)-3-(3-Thiazol-2-yl-benzyl)-morpholin-4-yl]-(2-[1,2,3]triazol-2-yl-phenyl)-methanone] | 2 | 2000 | 457 |  | 
Cc1ccc(-n2nccn2)c(C(=O)N2CCOC[C@H]2Cc2cccc(-c3cccnn3)c2)c1 [Example 47, (5-Methyl-2-[1,2,3]triazol-2-yl-phenyl)-[(R)-3-(3-pyridazin-3-yl-benzyl)-morpholin-4-yl]-methanone] | 13 | 6000 | 2380 |  | 
O=C(c1ccccc1-n1nccn1)N1CCOC[C@H]1Cc1cccc(-c2cccnn2)c1 [Example 48, [(R)-3-(3-Pyridazin-3-yl-benzyl)-morpholin-4-yl]-(2-[1,2,3]triazol-2-yl-phenyl)-methanone] | 39 | 9600 | 4440 |  | 
COc1ccc(-n2nccn2)c(C(=O)N2CCOC[C@H]2Cc2cccc(-c3ncccn3)c2)c1 [Example 50, (5-Methoxy-2-[1,2,3]triazol-2-yl-phenyl)-[(R)-3-(3-pyrimidin-2-yl-benzyl)-morpholin-4-yl]-methanone] | 2 | > 50000 | 942 |  | 
O=C(c1cc(Cl)ccc1-n1nccn1)N1CCOC[C@H]1Cc1cccc(-c2ncccn2)c1 [Example 51, (5-Chloro-2-[1,2,3]triazol-2-yl-phenyl)-[(R)-3-(3-pyrimidin-2-yl-benzyl)-morpholin-4-yl]-methanone] | 3 | 20000 | 229 |  | 
Cc1ccc(-n2nccn2)c(C(=O)N2CCOC[C@H]2Cc2cccc(-n3nccn3)c2)n1 [Example 52, (6-Methyl-3-[1,2,3]triazol-2-yl-pyridin-2-yl)-[(R)-3-(3-[1,2,3]triazol-2-yl-benzyl)-morpholin-4-yl]-methanone] | 43 | > 50000 | 1630 |  | 
Cc1ccc(-n2nccn2)c(C(=O)N2CCOC[C@H]2Cc2cccc(-n3cccn3)c2)n1 [Example 53, (6-Methyl-3-[1,2,3]triazol-2-yl-pyridin-2-yl)-[(R)-3-(3-pyrazol-1-yl-benzyl)-morpholin-4-yl]-methanone] | 27 | > 50000 | 3400 |  | 
